Experimental data as given in patent US20200029601A1, “PHENYLACRYLIC ACID SOLUTION FOR BROAD SPECTRUM ANTIMICROBIAL APPLICATIONS FOR FOODSTUFFS” (KLF LABS LLC, priority 2018, published 2020).
Where two headings read alike, the source gives them in different places.

Key:
Aspergillus brasiliensis = conditions: 1000 ppm, pH 4.0
Excerpt: (§1) To determine ascertain bactericidal and fungicidal qualities of the present food preservative solution, certain embodiments containing a combination of phenylacrylic acid, sorbic acid, a potentiation agent and a stabilization agent were subjected to a modified version of the United States Pharmocopedia (USP) antimicrobial efficacy test found in chapter 51 of the USP 40 manual. All embodiments were between pH 3.95-4.05.
(§2) To each of the embodiments, 1×10^6 cells from the following spoilage organisms; Escheria coli, Listeria monocytogenes, Salmonella entericia, Aspergillus flavus, Aspergillus brasiliensis, and Zygosaccharomyces bailii. The microbials were homogeneously dispersed in the various embodiments. Small aliquots are taken from the inoculated samples at the appropriate time point is serial diluted and plated. The plates are incubated, and growth is then enumerated. The counts are multiplied by the appropriate dilution factor to give a viable cell count at that time point.

Aspergillus flavus = conditions: 1000 ppm, pH 4.0
Excerpt: as §1, §2

Escheria coli = conditions: 1000 ppm, pH 4.0
Excerpt: as §1, §2

Listeria monocytogenes = conditions: 1000 ppm, pH 4.0
Excerpt: as §1, §2

Salmonella entericia = conditions: 1000 ppm, pH 4.0
Excerpt: as §1, §2

Zygosaccharomyces bailii = conditions: 1000 ppm, pH 4.0
Excerpt: as §1, §2

Saccharomyces cerevisiae = assay: Yeast growth in sterile model beverage (Experimental Test 5); assay type: cell-based; conditions: 300 ppm; model beverage at 4° C.; 72 hours
Method: Application experiments were set up using a model beverage. The formulations were tested against Saccharomyces cerevisiae, a yeast well recognized for its beverage spoiling quality. A sterile model beverage was prepared using the formulation indicated in Table 19, with an initial inoculation quantity of 10^4 cells/mL of beverage. […] The OD 660 of each sample was measured 72 hours after initial inoculation using an 8543 Spectrophotometer and the data was compiled using excel, as depicted in Table 20.

**Q.** How did the Microbial plate count (Aspergillus brasiliensis; Test Day 0) turn out when CC=CC=CC(=O)O [Sorbic Acid, 2,4 hexadienoic acid] was run?
**A.** Its Microbial plate count is 630000 CFU/g.

**Q.** And the Microbial plate count (Aspergillus brasiliensis; Test Day 0.5)?
**A.** The Microbial plate count was 230000 CFU/g.

**Q.** What about the Microbial plate count (Aspergillus brasiliensis; Test Day 1) of the same compound?
**A.** Its Microbial plate count is 520 CFU/g.

**Q.** What about the Microbial plate count (Aspergillus brasiliensis; Test Day 3) of the same compound?
**A.** Its Microbial plate count is less than 10 CFU/g.

**Q.** What about the Microbial plate count (Aspergillus brasiliensis; Test Day 7) of the same compound?
**A.** The Microbial plate count was less than 10 CFU/g.

**Q.** And the Microbial plate count (Aspergillus flavus; Test Day 0)?
**A.** The Microbial plate count was 510000 CFU/g.

**Q.** What about the Microbial plate count (Aspergillus flavus; Test Day 0.5) of the same compound?
**A.** Its Microbial plate count is 8500 CFU/g.

**Q.** And the Microbial plate count (Aspergillus flavus; Test Day 1)?
**A.** Its Microbial plate count is less than 10 CFU/g.

**Q.** What about the Microbial plate count (Aspergillus flavus; Test Day 3) of the same compound?
**A.** Its Microbial plate count is less than 10 CFU/g.

**Q.** What about the Microbial plate count (Aspergillus flavus; Test Day 7) of the same compound?
**A.** Its Microbial plate count is less than 10 CFU/g.

**Q.** And the Microbial plate count (Escheria coli; Test Day 0)?
**A.** The Microbial plate count was 580000 CFU/g.

**Q.** And the Microbial plate count (Escheria coli; Test Day 0.5)?
**A.** The Microbial plate count was less than 10 CFU/g.

**Q.** What about the Microbial plate count (Escheria coli; Test Day 1) of the same compound?
**A.** The Microbial plate count was less than 10 CFU/g.

**Q.** And the Microbial plate count (Escheria coli; Test Day 3)?
**A.** Its Microbial plate count is less than 10 CFU/g.

**Q.** What about the Microbial plate count (Escheria coli; Test Day 7) of the same compound?
**A.** The Microbial plate count was less than 10 CFU/g.

**Q.** And the Microbial plate count (Listeria monocytogenes; Test Day 0)?
**A.** The Microbial plate count was 620000 CFU/g.

**Q.** And the Microbial plate count (Listeria monocytogenes; Test Day 0.5)?
**A.** Its Microbial plate count is less than 10 CFU/g.

**Q.** What about the Microbial plate count (Listeria monocytogenes; Test Day 1) of the same compound?
**A.** The Microbial plate count was less than 10 CFU/g.

**Q.** And the Microbial plate count (Listeria monocytogenes; Test Day 3)?
**A.** The Microbial plate count was less than 10 CFU/g.

**Q.** And the Microbial plate count (Listeria monocytogenes; Test Day 7)?
**A.** Its Microbial plate count is less than 10 CFU/g.

**Q.** What about the Microbial plate count (Salmonella entericia; Test Day 0) of the same compound?
**A.** The Microbial plate count was 800000 CFU/g.

**Q.** What about the Microbial plate count (Salmonella entericia; Test Day 0.5) of the same compound?
**A.** The Microbial plate count was less than 10 CFU/g.

**Q.** And the Microbial plate count (Salmonella entericia; Test Day 1)?
**A.** Its Microbial plate count is less than 10 CFU/g.

**Q.** What about the Microbial plate count (Salmonella entericia; Test Day 3) of the same compound?
**A.** The Microbial plate count was less than 10 CFU/g.

**Q.** And the Microbial plate count (Salmonella entericia; Test Day 7)?
**A.** The Microbial plate count was less than 10 CFU/g.

**Q.** And the Microbial plate count (Zygosaccharomyces bailii; Test Day 0)?
**A.** The Microbial plate count was 480000 CFU/g.

**Q.** What about the Microbial plate count (Zygosaccharomyces bailii; Test Day 0.5) of the same compound?
**A.** Its Microbial plate count is 130000 CFU/g.

**Q.** What about the Microbial plate count (Zygosaccharomyces bailii; Test Day 1) of the same compound?
**A.** Its Microbial plate count is 1600 CFU/g.

**Q.** And the Microbial plate count (Zygosaccharomyces bailii; Test Day 3)?
**A.** The Microbial plate count was 120 CFU/g.

**Q.** What about the Microbial plate count (Zygosaccharomyces bailii; Test Day 7) of the same compound?
**A.** The Microbial plate count was less than 10 CFU/g.

**Q.** With O=C(O)C=Cc1ccccc1 [Phenylacrylic Acid, 3-phenyl-2-propenoic acid] as the compound, how does the “OD 660 nm” value (Saccharomyces cerevisiae) read?
**A.** Its value is 0.51.
